A word on the ΔTm: it is the change in melting temperature against a reference sample. In general, IC50 refers to the concentration that inhibits the measured activity by half. A lower IC50 goes with higher potency.

The species named for assay [1] is Homo sapiens. As to the kind of experiment: Binding affinity to N-terminal His-tagged ML-IAP K135A mutant (63 to 179 residues) (unknown origin) expressed in Escherichia coli BL21 assessed as change in melting temperature at 20 uM incubated for 2 hrs followed by heating at 40 to 70 degree C for 30 mins by SYPRO orange dye based thermal shift assay. Particulars: time 150.0 min.

For assay [2], the system named is SK-MEL-28. Put plainly: Induction of apoptosis in human SK-MEL-28 cells assessed as increase in caspase-3/7 activity measured up to 48 hrs in presence of 0.1 ng/mL TNFlpha by IncuCyteS3 caspase-3/7 fluorescence-based apoptosis assay. The class given is functional, cell-based. Particulars: dose 0.1-10 µM, DDE = dose-dependent effect.
The subject of assay [3] is SK-MEL-28. As to the kind of experiment: Induction of apoptosis in human SK-MEL-28 cells assessed as increase in caspase-3/7 activity at 0.1 to 10 uM in presence of 0.1 ng/mL TNFlpha by IncuCyteS3 caspase-3/7 fluorescence-based apoptosis assay. The class given is functional, cell-based. Particulars: dose 0.1-10 µM, time <= 48.0 hrs, TDE = time-dependent effect.
In assay [4] the target is E3 ubiquitin-protein ligase XIAP (Homo sapiens, UniProt P98170). As to the kind of experiment: Antagonist activity at N-terminal His-tagged XIAP-BIR3 domain (253 to 347 residues)(unknown origin) expressed in Escherichia coli BL21 using AVPIAQKSEK-biotinylated peptide as substrate incubated for 2 hrs by DELFIA assay.
Assay [5] deals with Baculoviral IAP repeat-containing protein 3 (Homo sapiens, UniProt Q13489). As to the kind of experiment: Antagonist activity at N-terminal His-tagged cIAP2-BIR3 domain (unknown origin) expressed in Escherichia coli BL21 using AVPIAQKSEK-biotinylated peptide as substrate incubated for 2 hrs by DELFIA assay.
Assay [6] has as its target Baculoviral IAP repeat-containing protein 2 (Homo sapiens, UniProt Q13490). As to the kind of experiment: Antagonist activity at N-terminal His-tagged cIAP1-BIR3 domain (unknown origin) expressed in Escherichia coli BL21 using AVPIAQKSEK-biotinylated peptide as substrate incubated for 2 hrs by DELFIA assay.
Assay [7] addresses T1, Baculoviral IAP repeat-containing protein 7 (Homo sapiens, UniProt Q96CA5).
T1 sequence (Q96CA5 whole entry): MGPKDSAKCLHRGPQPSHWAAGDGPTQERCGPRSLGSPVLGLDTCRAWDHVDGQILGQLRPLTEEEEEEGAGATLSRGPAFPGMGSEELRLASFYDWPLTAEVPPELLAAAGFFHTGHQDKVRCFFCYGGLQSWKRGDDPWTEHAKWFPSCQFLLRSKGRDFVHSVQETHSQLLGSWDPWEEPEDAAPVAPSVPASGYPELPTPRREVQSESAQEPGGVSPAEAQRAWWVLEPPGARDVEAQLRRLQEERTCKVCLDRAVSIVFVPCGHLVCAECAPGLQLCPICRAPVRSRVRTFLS
Put plainly: Antagonist activity at N-terminal His-tagged wild type ML-IAP BIR domain (63 to 179 residues) (unknown origin) expressed in Escherichia coli BL21 using AVPIAQKSEK-biotinylated peptide as substrate incubated for 2 hrs by DELFIA assay.

In assay [8] the target is T1, Baculoviral IAP repeat-containing protein 7. Put plainly: Antagonist activity at N-terminal His-tagged wild type ML-IAP BIR domain (63 to 179 residues)(unknown origin) expressed in Escherichia coli BL21 using AVPIAQKSEK-biotinylated peptide as substrate preincubated for 2 hrs with protein followed by substrate addition measured after 2 hrs by DELFIA assay.
The target of assay [9] is T2, Baculoviral IAP repeat-containing protein 7 (Homo sapiens) (UniProt Q96CA5).
T2 sequence (whole entry): T1 sequence (Q96CA5 whole entry)
Particulars: dose 20.0 µM, time 150.0 min.

Structures are written as SMILES. Some results are limits rather than exact numbers.

E3 ubiquitin-protein ligase XIAP, sequence (P98170 whole entry, the tested form may be a part): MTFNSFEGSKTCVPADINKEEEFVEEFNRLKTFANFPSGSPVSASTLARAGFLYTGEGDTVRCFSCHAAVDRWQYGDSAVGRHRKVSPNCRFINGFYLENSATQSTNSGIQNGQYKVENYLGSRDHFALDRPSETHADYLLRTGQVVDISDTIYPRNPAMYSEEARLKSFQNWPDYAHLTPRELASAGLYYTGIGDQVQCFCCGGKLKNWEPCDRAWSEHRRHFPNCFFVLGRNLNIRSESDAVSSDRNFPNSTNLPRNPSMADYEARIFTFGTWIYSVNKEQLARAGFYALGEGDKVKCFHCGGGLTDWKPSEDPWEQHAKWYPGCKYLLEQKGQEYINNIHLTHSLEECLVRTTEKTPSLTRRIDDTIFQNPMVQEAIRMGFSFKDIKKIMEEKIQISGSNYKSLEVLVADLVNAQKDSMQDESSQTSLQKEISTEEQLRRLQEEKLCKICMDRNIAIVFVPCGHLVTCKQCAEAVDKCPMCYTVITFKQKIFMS
Baculoviral IAP repeat-containing protein 3, sequence (Q13489 whole entry, the tested form may be a part): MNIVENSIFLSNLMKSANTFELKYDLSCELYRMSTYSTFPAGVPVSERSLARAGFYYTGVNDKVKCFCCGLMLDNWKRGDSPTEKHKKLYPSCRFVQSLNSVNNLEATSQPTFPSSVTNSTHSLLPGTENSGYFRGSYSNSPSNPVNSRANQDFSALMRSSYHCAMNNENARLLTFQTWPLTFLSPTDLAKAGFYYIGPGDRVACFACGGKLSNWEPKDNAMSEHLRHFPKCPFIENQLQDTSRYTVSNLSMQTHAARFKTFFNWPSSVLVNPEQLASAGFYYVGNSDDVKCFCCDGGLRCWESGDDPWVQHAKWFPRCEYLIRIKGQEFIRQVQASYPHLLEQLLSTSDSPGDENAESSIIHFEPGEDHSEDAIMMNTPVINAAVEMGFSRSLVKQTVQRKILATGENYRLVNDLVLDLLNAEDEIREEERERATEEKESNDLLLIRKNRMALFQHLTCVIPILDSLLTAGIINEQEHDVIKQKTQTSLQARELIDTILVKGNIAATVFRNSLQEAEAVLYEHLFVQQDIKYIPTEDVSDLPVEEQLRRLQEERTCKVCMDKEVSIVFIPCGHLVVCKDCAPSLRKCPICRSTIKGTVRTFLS
Baculoviral IAP repeat-containing protein 2, sequence (Q13490 whole entry, the tested form may be a part): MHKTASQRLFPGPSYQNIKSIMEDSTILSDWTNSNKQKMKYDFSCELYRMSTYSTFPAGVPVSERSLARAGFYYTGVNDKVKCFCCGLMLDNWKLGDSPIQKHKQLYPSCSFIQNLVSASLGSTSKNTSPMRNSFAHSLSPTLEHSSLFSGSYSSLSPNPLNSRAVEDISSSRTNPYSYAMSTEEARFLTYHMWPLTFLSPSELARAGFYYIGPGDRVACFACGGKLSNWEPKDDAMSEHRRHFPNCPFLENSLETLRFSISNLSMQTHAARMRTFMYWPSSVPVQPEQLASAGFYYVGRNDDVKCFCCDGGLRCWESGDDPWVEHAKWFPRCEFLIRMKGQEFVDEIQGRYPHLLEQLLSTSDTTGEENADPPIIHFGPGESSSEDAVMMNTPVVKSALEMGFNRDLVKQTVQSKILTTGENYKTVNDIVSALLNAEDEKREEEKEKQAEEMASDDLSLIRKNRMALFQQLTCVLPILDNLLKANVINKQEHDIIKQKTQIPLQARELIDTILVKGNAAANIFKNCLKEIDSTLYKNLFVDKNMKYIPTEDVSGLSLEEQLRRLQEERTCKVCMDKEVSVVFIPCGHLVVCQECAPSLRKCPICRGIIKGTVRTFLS

With `CN[C@@H](C)C(=O)N[C@@H](CNC(=O)c1cc(S(=O)(=O)O)ccc1OC)C(=O)N1CCC[C@H]1C(=O)N[C@@H]1CCc2ccccc21`, the ΔTm in [1] was determined as 4.7 °C.

On to `CN[C@@H](C)C(=O)N[C@@H](CNC(=O)c1cc(S(=O)(=O)F)ccc1OC)C(=O)N1CCC[C@H]1C(=O)N[C@@H]1CCc2ccccc21`, for which the Activity result in assay [2] was “Dde”; in [3] it was “Tde”. For the same compound, the ΔTm in [1] came out at 6.2 °C.

Consider `CN[C@@H](C)C(=O)N[C@@H](CNC(=O)c1cc(S(=O)(=O)F)ccc1OC)C(=O)N1CCC[C@H]1C(=O)N[C@@H]1CCc2c(F)cccc21`, for which the IC50 in assay [4] was more than 1 µM.

For the compound `CN[C@@H](C)C(=O)N[C@@H](CNC(=O)c1cc(S(=O)(=O)F)ccc1OC)C(=O)N1CCCC[C@H]1C(=O)N[C@@H](Cc1ccccc1)C(N)=O`, the values for the IC50 in assay [5] and in assay [4] were more than 2 µM and more than 2.5 µM, respectively.

On to `CN[C@@H](C)C(=O)N[C@@H](CNC(=O)c1cccc(S(=O)(=O)F)c1)C(=O)N1CCC[C@H]1C(=O)NC1Cc2ccccc2C1`, for which the IC50 is more than 1 µM in assay [6], more than 1 µM in assay [7], more than 1.5 µM in assay [5] and more than 2.5 µM in [4].

With `CN[C@@H](C)C(=O)N[C@H](C(=O)N1CCC[C@H]1c1nc(C(=O)c2ccc(F)cc2)cs1)C1CCCCC1` [LCL-161], the IC50 in assay [8] stood at 0.015 µM; in assay [7], 0.009 µM. The Activity entry in [2] is “Dde”; in [3] it was “Tde”. Further, the ΔTm in assay [9] was found to be 12.6 °C; in assay [1], 14.5 °C.
